Test results taken from US20260103471A1, “CYCLIC UREA THIAZOLYL COMPOUNDS FOR TREATMENT OF HSV” (Assembly Biosciences, Inc., priority 2022, published 2026).

tested on: HSV-1; assay: HSV-1 Antiviral Assay (Vero cells, cell viability); format: cell-based; details: Human alphaherpesvirus 1, 96 h; Vero cells, 80 TCID50 HSV-1, 4 days, cell viability; read-out: HSV-1 EC50
Description: Vero cells were cultured in Dulbecco's Modified Eagle Medium (DMVEM) supplemented with […] and 100 units/mL penicillin and streptomycin. The cells were passaged 2-3 times per week to maintain sub-confluent densities.
Vero cells were seeded into 96-well plates at a density of 2.5×10^3 cells per well and allowed to attach overnight. Following attachment, the media was replaced with 50 μL of infection medium (DMVEM supplemented with 2% fetal bovine serum and 100 units/mL penicillin and streptomycin). A Tecan D300e digital dispenser was then used to add compounds to the culture using an 8-point 3-fold serial dilution format. The DMSO concentration was normalized to 0.5% for all treatments. Following compound addition, 50 μL of infection medium containing 80 TCID50 HSV-1 was added to the cells and incubated at 37° C. for 4 days. After the incubation, the plates were equilibrated to room temperature, the media was removed, and […] a 1:1 dilution of Cell titer glow and phosphate buffered saline was added to the cells. Following a 5-minute incubation, cell viability was quantified by measuring luminance using a Tecan Infinite M1000 Pro plate reader.

First: CC[S@@](=N)(=O)c1sc(N2CCCN(c3ccc(-c4cc(F)ccc4F)cc3)C2=O)nc1C (single isomer, unassigned) [Compound 149]
Second: CC[S@](=N)(=O)c1sc(N2CCCN(c3ccc(-c4cc(F)ccc4F)cc3)C2=O)nc1C (single isomer, unassigned) [Compound 150]
The EC50 of the first is higher: 100 to 1000 nM for the first, < 100 nM for the second.

Cc1nc(N2CC3(CC3)CN(c3ccc(-c4ccccc4F)cc3)C2=O)sc1[S@](C)(=N)=O (single isomer, unassigned) [Compound 159] and Cc1nc(N2CC3(CC3)CN(c3ccc(-c4ccccc4F)cc3)C2=O)sc1[S@@](C)(=N)=O (single isomer, unassigned) [Compound 160] fall in the same range of EC50: 100 to 1000 nM for the first, 100 to 1000 nM for the second.

First: Cc1nc(N2CCCN([C@@H](C)c3cccc(-c4ccccc4F)c3)C2=O)sc1S(N)(=O)=O (single isomer, unassigned) [Compound 179]
Second: Cc1nc(N2CC3(CC3)CN(c3ccc(-c4ccccc4F)cc3)C2=O)sc1S(N)(=O)=O [Compound 111]
The EC50 of the first is higher: 1000 to 5000 nM for the first, < 100 nM for the second. The second is the more potent here.

Cc1nc(N2CCCN(c3ccc(-c4cccc(C(F)(F)F)c4)cc3)C2=O)sc1S(N)(=O)=O [Compound 15] and Cc1nc(N2CCCN(c3ccc(-c4nc(C(F)(F)F)cs4)cc3)C2=O)sc1S(N)(=O)=O [Compound 46] fall in the same range of EC50: 100 to 1000 nM for the first, 100 to 1000 nM for the second.

C#Cc1cc(F)c(-c2ccc(N3CCCN(c4nc(C)c(S(N)(=O)=O)s4)C3=O)cc2)cc1F [Compound 29] and Cc1nc(N2CCN(c3ccc(-c4cc(F)ccc4F)cc3)C2=O)sc1S(N)(=O)=O [Compound 104] fall in the same range of EC50: 1000 to 5000 nM for the first, 1000 to 5000 nM for the second.

Cc1nc(N2CCCN(c3ccc(-c4cccc(N)n4)cc3)C2=O)sc1S(N)(=O)=O [Compound 33] and Cc1nc(N2CCCN(c3ccc(-c4cnccn4)cc3)C2=O)sc1S(N)(=O)=O [Compound 39] fall in the same range of EC50: 100 to 1000 nM for the first, 100 to 1000 nM for the second.

Cc1nc(N2CCCN(c3ccc(-c4cccc(NC(=O)OC(C)(C)C)n4)cc3)C2=O)sc1S(N)(=O)=O [Compound 34] and CNS(=O)(=O)c1sc(N2CCCN(c3ccc(-c4cccc(NC(=O)OC(C)(C)C)n4)cc3)C2=O)nc1C [Compound 125] fall in the same range of EC50: 100 to 1000 nM for the first, 100 to 1000 nM for the second.

Cc1cnc(-c2ccc(N3CCCN(c4nc(C)c(S(N)(=O)=O)s4)C3=O)cc2)s1 [Compound 44] and Cc1nc(N2CCCN(c3ccc(-c4nnco4)cc3)C2=O)sc1S(N)(=O)=O [Compound 51, 2-(3-(4-(1,3,4-oxadiazol-2-yl)phenyl)-2-oxotetrahydropyrimidin-1(2H)-yl)-4-methylthiazole-5-sulfonamide] fall in the same range of EC50: 1000 to 5000 nM for the first, 1000 to 5000 nM for the second.

Cc1nc(N2CCCN(c3ccc(-c4cccc5cn(C)nc45)cc3)C2=O)sc1S(N)(=O)=O [Compound 53] and Cc1nc(N2CCCN(c3ccc(-c4cccc5c4ncn5C)cc3)C2=O)sc1S(N)(=O)=O [Compound 61] fall in the same range of EC50: 100 to 1000 nM for the first, 100 to 1000 nM for the second.

First: Cc1nc(N2CCCN(c3ccc(-c4cccc5ncn(C)c45)cc3)C2=O)sc1S(N)(=O)=O [Compound 62]
Second: Cc1nc(N2CCCN(c3ccc(-c4cccc5cnn(C)c45)cc3)C2=O)sc1S(N)(=O)=O [Compound 63]
The EC50 of the first is higher: 1000 to 5000 nM for the first, < 100 nM for the second. The second is the more potent here.

Cc1nc(N2CCCN(c3ccc(-c4cccc5c4ccn5C)cc3)C2=O)sc1S(N)(=O)=O [Compound 66] and Cc1nc(N2CCCN(c3ccc(-c4cccc5ccncc45)cc3)C2=O)sc1S(N)(=O)=O [Compound 83] cannot be ordered by EC50: < 100 nM for the first, < 100 nM for the second.

Compared with Cc1nc(N2CCCN(c3ccc(-c4cccc5scnc45)cc3)C2=O)sc1S(N)(=O)=O [Compound 71, 2-(3-(4-(Benzo[d]thiazol-4-yl)phenyl)-2-oxotetrahydropyrimidin-1(2H)-yl)-4-methylthiazole-5-sulfonamide], Cc1nc(N2CCCN(c3ccc(-c4cccc5cccnc45)cc3)C2=O)sc1S(N)(=O)=O [Compound 82] is higher in EC50: < 100 nM for the first, 100 to 1000 nM for the second.

First: Cc1nc(N2CCCN(c3ccc(-c4cccc5c4CC(=O)N5)cc3)C2=O)sc1S(N)(=O)=O [Compound 76]
Second: Cc1nc(N2CCCN(c3ccc(-c4n[nH]c5ccccc45)cc3)C2=O)sc1S(N)(=O)=O [Compound 91]
The EC50 of the first is higher: 1000 to 5000 nM for the first, 100 to 1000 nM for the second.

First: Cc1nc(N2CCCN(c3ccc(-c4nc5ccccc5o4)cc3)C2=O)sc1S(N)(=O)=O [Compound 87]
Second: Cc1nc(N2CCCN(c3ccc(-n4ncc5ccccc54)cc3)C2=O)sc1S(N)(=O)=O [Compound 93]
The EC50 of the first is higher: 1000 to 5000 nM for the first, < 100 nM for the second.

First: Cc1nc(N2CCCN(c3cnn(-c4ccccc4F)c3)C2=O)sc1S(N)(=O)=O [Compound 100]
Second: Cc1nc(N2CCCN(c3ccc(-c4ccccn4)c(F)c3)C2=O)sc1S(=O)(=O)NC1CC1 [Compound 129]
The EC50 of the first is higher: 1000 to 5000 nM for the first, 100 to 1000 nM for the second.

Compared with Cc1nc(N2CC(C)(C)CN(c3ccc(-c4cc(F)ccc4F)cc3)C2=O)sc1S(N)(=O)=O [Compound 106], Cc1nc(N2CCCN(c3ccc(-c4cc(F)ccc4F)cc3)C2=O)sc1S(C)(=N)=O (centres unmarked) [Compound 139, 1-(2′,5′-Difluoro-[1,1′-biphenyl]-4-yl)-3-(4-methyl-5-(S-methylsulfonimidoyl)thiazol-2-yl) tetrahydropyrimidin-2(1H)-one] is higher in EC50: < 100 nM for the first, 100 to 1000 nM for the second. The first is the more potent here.

First: Cc1nc(N2CCCN(c3ccc(-c4cc(F)ccc4F)cc3)C2=O)sc1S(=O)(=O)Nc1ccccc1 [Compound 134]
Second: CC(=O)NS(=O)(=O)c1sc(N2CCCN(c3ccc(-c4cc(F)ccc4F)cc3)C2=O)nc1C [Compound 137]
The EC50 of the first is lower: 100 to 1000 nM for the first, 1000 to 5000 nM for the second. The first is the more potent here.

Cc1nc(N2CCCN(c3ccc(-c4cc(F)ccc4F)cc3)C2=O)sc1S(=O)(=O)N1CCNCC1 [Compound 135] and Cc1nc(N2CCCN(c3ccc(-c4cc(F)ccc4F)cc3)C2=O)sc1S(=O)(=O)N1CCOCC1 [Compound 136] fall in the same range of EC50: 100 to 1000 nM for the first, 100 to 1000 nM for the second.

In the case of CCS(=N)(=O)c1sc(N2CCCN(c3ccc(-c4cc(F)ccc4F)cc3)C2=O)nc1C (centres unmarked) [Compound 148], the EC50 is reported as < 100 nM.

tested on: HSV-2 G strain; assay: HSV-2 Antiviral Assay (Vero cells, cell viability); format: cell-based; details: Human alphaherpesvirus 2, Vero, 120 h, Vero cells, 160 TCID50 HSV-2 G strain, 5 days, cell viability
In short: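 Vero cells (1.0×10^4/well, attached overnight) given 8-point 3-fold compound dilutions (0.5% DMSO) then infected with 160 TCID50 HSV-2 G strain in 2% FBS medium for 5 days at 37 °C. Protection read as cell viability by WST-8 absorbance at 460 and 620 nm after 3 h.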

Compared with Cc1nc(N2CCCN(c3ccc(-c4cc(F)ccc4F)cc3)C2=O)sc1S(=O)(=O)Nc1ccc2cc[nH]c2c1 [Compound 407], COCCCNS(=O)(=O)c1sc(N2CCCN(c3ccc(-c4cc(F)ccc4F)cc3)C2=O)nc1C [Compound 416] is lower in EC50: 100 to 1000 nM for the first, < 100 nM for the second.

Cc1nc(N2CCCN(c3ccc(-c4cc(F)ccn4)cc3)C2=O)sc1S(=O)(=O)NC1CC1 [Compound 408] and Cc1nc(N2CCCN(c3ccc(-c4ncccc4F)cc3)C2=O)sc1S(=O)(=O)NC1CC1 [Compound 409] cannot be ordered by EC50: < 100 nM for the first, < 100 nM for the second.

Cc1nc(N2CCCN(c3ccc(-c4cccc(N)n4)cc3)C2=O)sc1S(=O)(=O)NC1CC1 [Compound 410] and CNS(=O)(=O)c1sc(N2CCCN(c3ccc(-c4cccc5cc(N)ncc45)cc3)C2=O)nc1C [Compound 411] cannot be ordered by EC50: < 100 nM for the first, < 100 nM for the second.

First: Cc1nc(N2CCCN(c3ccc(-c4ccccc4F)cc3)C2=O)sc1S(=O)(=O)C(F)F [Compound 412, 1-(5-((difluoromethyl)sulfonyl)-4-methylthiazol-2-yl)-3-(2′-fluoro-[1,1′-biphenyl]-4-yl)tetrahydropyrimidin-2(1H)-one]
Second: C#Cc1nc(N2CCCN(c3ccc(-c4cc(F)ccc4F)cc3)C2=O)sc1S(N)(=O)=O [Compound 439]
The EC50 of the first is higher: 100 to 1000 nM for the first, < 100 nM for the second. The second is the more potent here.

Cc1nc(N2CC(F)CN(c3ccc(-c4cc(F)ccc4F)cc3)C2=O)sc1S(=O)(=O)NCCO (centres unmarked) [Compound 413] and Cc1nc(N2CCCN(c3ccc(-c4cc(F)ccc4F)cc3)C2=O)sc1S(=O)(=O)NCCCCCCCCCCO [Compound 420] cannot be ordered by EC50: < 100 nM for the first, < 100 nM for the second.

Cc1nc(N2CCCN(c3ccc(-c4cc(F)cc5nsnc45)cc3)C2=O)sc1S(=O)(=O)NCCCO [Compound 418] and COCCCNS(=O)(=O)c1sc(N2CCCN(c3ccc(-c4cc(F)cc5nsnc45)cc3)C2=O)nc1C [Compound 419] cannot be ordered by EC50: < 100 nM for the first, < 100 nM for the second.

COCCCCCCCCCCNS(=O)(=O)c1sc(N2CCCN(c3ccc(-c4cc(F)ccc4F)cc3)C2=O)nc1C [Compound 421] and COc1c(F)cc(F)cc1-c1ccc(N2CCCN(c3nc(C)c(S(=O)(=O)NCCCCCCCCCCO)s3)C2=O)cc1 [Compound 422] cannot be ordered by EC50: < 100 nM for the first, < 100 nM for the second.

CCCS(=N)(=O)c1sc(N2CCCN(c3ccc(-c4cc(F)cc(F)c4F)cc3)C2=O)nc1C (centres unmarked) [Compound 423] and COc1c(F)cc(F)cc1-c1ccc(N2CCCN(c3nc(C(F)(F)F)c(S(N)(=O)=O)s3)C2=O)cc1 [Compound 437] cannot be ordered by EC50: < 100 nM for the first, < 100 nM for the second.

Cc1nc(N2CCCCN(c3ccc(-c4cccc5ncsc45)cc3)C2=O)sc1S(C)(=N)=O (centres unmarked) [Compound 428] and Cc1nc(N2CC3(COC3)CN(c3ccc(-c4cc(F)ccc4F)cc3)C2=O)sc1S(C)(=N)=O (centres unmarked) [Compound 431] cannot be ordered by EC50: < 100 nM for the first, < 100 nM for the second.

COc1ccc(F)cc1-c1ccc(N2CC3(COC3)CN(c3nc(C)c(S(C)(=O)=O)s3)C2=O)cc1 [Compound 435] and NS(=O)(=O)c1sc(N2CCCN(c3ccc(-c4cc(F)ccc4F)cc3)C2=O)nc1CO [Compound 440, 2-(3-(2′,5′-difluoro-[1,1′-biphenyl]-4-yl)-2-oxotetrahydropyrimidin-1(2H)-yl)-4-(hydroxymethyl)thiazole-5-sulfonamide] cannot be ordered by EC50: < 100 nM for the first, < 100 nM for the second.

NS(=O)(=O)c1sc(N2CCCN(c3ccc(-c4cc(F)cc5nsnc45)cc3)C2=O)nc1C(F)(F)F [Compound 438] was tested, and the EC50 was 1000 to 5000 nM.

same assay, conditions: Human alphaherpesvirus 2, Vero, 120 h, Vero cells, 5 days

Cc1nc(N2CCN(c3ccc(-c4cc(F)cc5nsnc45)cc3)C2=O)sc1S(N)(=O)=O [Example 314] gave an EC50 of 28 nM.
